Measured values from publication PMC6335623, “A computationally designed binding mode flip leads to a novel class of potent tri-vector cyclophilin inhibitors” (Chemical Science, 2018).
Where two headings read alike, the source gives them in different places.

Legend:
CypA = molecular target: T1, CypA (Homo sapiens, UniProt P62937); assay: Isothermal titration calorimetry (ITC), ester series, direct titration; details: 25 °C, 50 mM phosphate buffer pH 6.5; single experiments; uncertainties from fit to one-site binding model; n.b. = no binding observed at the maximum concentration tested
T1 construct: His-tag (TEV-cleavable) (cleaved yes); made in house; host or cells: E. coli C41 BL21(DE3) ('C41 BL21(DH3)' [sic]); plasmid from the Edinburgh Protein Production Facility
Method: The molecular weights of HisCypA and free CypA are 20.893 and 18.070 kDa, respectively. Protein concentration was determined by measuring the absorbance at 280 nm and the extinction coefficients 14440 and 8480 M-1 cm-1, respectively.
Isothermal Titration Calorimetry (ITC)
ITC1 – Ester series: Instrument and experimental setup
All ITC experiments for the ester series compounds were carried out at 25 °C on a MicroCal Auto iTC200 (GE Healthcare) instrument. The buffer used in the titrations of the compounds belonging to the ester series (1 – 12) was 50 mM phosphate buffer, pH 6.5 and the concentration of DMSO was 2% v/v for all the compounds, unless otherwise stated in Table S1. Final compound solutions were heated to 65 °C and/or sonicated prior to the experiment. Each experiment consisted of an initial injection of 0.4 μL followed by nineteen 2 μL injections and in most of cases for these compounds, the “continue injections” protocol was used leaving the cell intact and performing a second series of titrations using the above protocol to achieve saturation. Control experiments were performed, where each compound was titrated into buffer and when small amount of heat was detected due to heat of dilution, it was subtracted when processing the data using a linear fit method. A more detailed setup for each experiment is depicted in Table S6. In all cases the first injection was omitted from the data processing. All data were analysed using the MicroCal PEAQ-ITC […]
(Wiseman constant) is very small, a fixed stoichiometry to 1 was applied during the non-linear regression of […]
the duration of the experiment.

His-CypD = molecular target: T2, His-CypD (Homo sapiens, UniProt P30405); assay: Surface plasmon resonance (SPR) kinetic titration, BIAcore T200; assay type: binding; details: 25 °C, mean ± 1σ from three repeat experiments
T2 construct: made in house; host or cells: E. coli C41 BL21(DE3) ('C41 BL21(DH3)' [sic]); plasmid from the Edinburgh Protein Production Facility
Method: (§1) injection protocol (Fig. S9B). […]
(§2) using the same instrument parameters was performed (Fig. S9A).
(§3) Surface Plasmon Resonance (SPR)
(§4) SPR1 – SPR equipment and reagents
(§5) SPR measurements were performed on a BIAcore T200 instrument (GE Healthcare). Ni2+- nitrilotriacetic acid (NTA) sensor chips, 1-ethyl-3-(3- diaminopropyl) carbodiimide hydrochloride (EDC) and Nhydroxysuccinimide (NHS) were purchased from GE Healthcare.
(§6) SPR2 – Immobilization and covalent stabilizations of His-Cyps
(§7) Pure His-cyclophilins were immobilized and covalently stabilized on the NTA sensor chip according to the protocol described [Wear et al., 2017, FEBS OpenBio], using 200 nM concentrations of each protein, in Running Buffer (PBS, pH 7.4; 0.05% surfactant P20, 2% v/v ethanol; 50 µM EDTA), at 30 µl min-1 with 60 second contact times on the activated NTA surfaces.
(§8) (1 picture or pasted object on this page, not shown here)
(§9) Specific surface protein activity was assayed by passing saturating […]
(§10) SPR3 – Kinetic titration experiments
(§11) Buffer (PBS, pH 7.4, 50 µM mM EDTA; 0.05 % v/v surfactant P20; 2 % v/ v ethanol), were injected over the sensor surface, at 100 µl.min -1 with a 90 s contact time and a 90 s dissociation time. The sensor surface was regenerated between experiments by dissociating any formed complex in running buffer for at least 1,200 seconds. The apparent on-rate (k+) and off-rate (k-) constants and the equilibrium dissociation constant (K d) were calculated from reference corrected sensorgrams by global fitting of a 1:1 binding model, including a mass transport term, using analysis software ( v.2.02, GE Healthcare) provided with the BIAcore T200 […]
(§12) Buffer (PBS, pH 7.4, 50 µM mM EDTA; 0.05 % v/v surfactant P20; 2 % v/v ethanol), were injected over the sensor surface, at 100 µl.min-1 with a 15 s contact time and a 600 s dissociation time. The sensor surface was […]

His-CypA = molecular target: T3, His-CypA (Homo sapiens, UniProt P62937); assay: as above; assay type: binding
T3 construct: made in house; host or cells: E. coli C41 BL21(DE3) ('C41 BL21(DH3)' [sic]); plasmid from the Edinburgh Protein Production Facility
Method: as §1, §2, §3, §4, §5, §6, §7, §8, §9, §10, §11, §12

MDA-MB-231_NLG cells = assay: cells; assay type: cell-based; details: 120 hours treatment
Method: The tumorigenic, breast, epithelial adenocarcinoma cell lines MDA-MB-231_NLG and the normal, lung fibroblast cell line, IMR90 were cultured as adherent monolayers in DMEM with 10% volume FBS in an atmosphere with 5% CO2 and 95% humidity and were routinely sub-cultured upon reaching 80-90% confluence. MDA-MB-231_NLG cells are a variant of MDA-MB-231 cells, expressing nuclear-restricted green fluorescent protein; they were produced by stable transduction of MDA-MB-231 cells with NucLight Green lentivirus (Essen Bioscience), following the manufacturer’s protocol.
Image-based Cell Viability Assays
Cells were seeded at a density of 500 cells per well in cell culture medium in 384-well cell culture plates and allowed to adhere overnight (about 16 hours), incubated in a humidified atmosphere with 5% CO2.
Subsequently, cell culture medium was refreshed, supplemented with Draq 7 (3µM final concentration) and test compound at the indicated concentrations with three wells being treated for each condition tested. Cells were then returned to the cell culture incubator and imaged with a 10X objective every 3 hours for 120 hours using an IncuCyte ZOOM microscope from Essen Bioscience.
Using the IncuCyte ZOOM software, custom image analysis procedures were developed and applied for each cell line to determine cell confluency, cell number and number of dead cells over the time course of the experiment. Phase contrast was used to determine relative area of each image occupied by cells (confluency), while green nuclear counts were used to determine number of MDA-MB-231_NLG cells and red nuclear counts were used to determine number of dead (Draq7-positive) cells. […]
growth inhibition) being determined by fitting non-linear regression curves to the data and extrapolating the required values using GraphPad Prism 6. Statistical analyses in cell viability assays to compare the effect of compound treatment to treatment with vehicle were performed using GraphPad Prism 6 (2-way ANOVA with Bonferroni correction post hoc).

His-CypB = molecular target: T4, His-CypB (Homo sapiens, UniProt P23284); assay: biochemical; assay type: binding; details: 25 °C, mean ± 1σ from three repeat experiments; read-out: Kd (SPR) CypB
T4 construct: made in house; host or cells: E. coli C41 BL21(DE3) ('C41 BL21(DH3)' [sic]); plasmid from the Edinburgh Protein Production Facility
Method: as §1, §2, §3, §4, §5, §6, §7
(1 picture or pasted object on this page, not shown here) […]
as §11, with “The sensor surface was regenerated between experiments by dissociating any formed complex in running buffer for at least 1,200 seconds.” left out

T1 sequence (P62937 whole entry): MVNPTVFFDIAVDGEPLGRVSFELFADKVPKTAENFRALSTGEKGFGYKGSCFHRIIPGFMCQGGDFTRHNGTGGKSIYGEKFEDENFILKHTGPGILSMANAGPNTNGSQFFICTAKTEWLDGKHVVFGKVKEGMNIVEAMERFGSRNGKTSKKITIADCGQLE
T2 sequence (P30405 30-207): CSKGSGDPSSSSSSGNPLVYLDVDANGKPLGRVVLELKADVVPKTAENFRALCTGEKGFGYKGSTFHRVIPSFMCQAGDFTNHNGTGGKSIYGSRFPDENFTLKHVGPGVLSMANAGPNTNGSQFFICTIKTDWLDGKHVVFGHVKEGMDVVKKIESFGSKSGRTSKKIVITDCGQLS
T4 sequence (P23284 34-216): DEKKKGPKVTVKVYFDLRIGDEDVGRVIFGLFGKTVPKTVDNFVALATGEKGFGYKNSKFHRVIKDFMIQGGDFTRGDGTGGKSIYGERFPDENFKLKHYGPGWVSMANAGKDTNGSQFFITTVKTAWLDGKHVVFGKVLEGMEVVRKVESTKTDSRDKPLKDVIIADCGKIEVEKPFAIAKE
T3 sequence (P62937 whole entry): as the sequence (P62937 whole entry) above

## CCOC(=O)CNC(=O)N(Cc1ccc(N)cc1)C(C)C.Cl [Compound 3]
CypA
  CypA Kd (ITC): n.b and n.b. and inactive

## CCCN(Cc1ccc(N)cc1)C(=O)NCC(=O)OCC [Compound 4]
CypA
  Kd: 266 ± 3 µM

## CCOC(=O)CNC(=O)N(CC#N)Cc1ccc(N)cc1.Cl [Compound 6]
CypA
  CypA Kd (ITC): very weak binders
  Kd: 993 ± 20 µM

## CCOC(=O)CNC(=O)N(Cc1ccc(N)cc1)CC1CC1.Cl [Compound 7]
CypA
  CypA Kd (ITC): n.b and n.b. and very weak binders

## CCOC(=O)CNC(=O)N(Cc1ccc(N)cc1)C1CCNCC1.Cl.Cl [Compound 11]
CypA
  CypA Kd (ITC): n.b and n.b. and inactive

## C#CCN(Cc1ccc(N)cc1)C(=O)NCC(=O)N1CCCC1c1ccccc1Br (stereo not drawn) [Compound 13]
His-CypD
  Kd: 0.2 ± 0.1 µM
His-CypA; 25 °C, mean ± 1σ from three repeat experiments, read-out: Kd (SPR) CypA
  Kd: 3.2 ± 1.3 µM
MDA-MB-231_NLG cells
  cell death (dead cells): Negligible cell death
MDA-MB-231_NLG cells; Homo sapiens, mean with 95% CI [lower limit, upper limit], three independent experiments, read-out: GI50, growth inhibition
  GI50: 5.13 µM
His-CypB
  Kd: 1.4 ± 0.4 µM

## Cl.Cn1cc(CN(Cc2ccc(N)cc2)C(=O)NCC(=O)N2CCCC2c2ccccc2Br)nn1 (stereo not drawn) [Compound 14]
MDA-MB-231_NLG cells; mean with 95% CI [lower limit, upper limit], three independent experiments
  GI50, growth inhibition: inactive

## CCOC(=O)Cn1cc(CN(Cc2ccc(N)cc2)C(=O)NCC(=O)N2CCCC2c2ccccc2Br)nn1 (stereo not drawn) [Compound 16]
His-CypD
  Kd: 1 ± 0.4 µM
His-CypA
  Kd: 4.3 ± 1 µM
His-CypB
  Kd: 1.9 ± 0.9 µM
